Earlier results in US12458589B2, “Implantable polymer depots for the controlled release of therapeutic agents” (Foundry Therapeutics, Inc., priority 2018, dated 2025).
Like-named read-outs stand apart in the source and are kept apart here.

Tests used:
[1] = not given; remark: listed apart in the source

generally regarded as safe plasma level: 1,000 ng/mL | generally regarded as safe plasma level [1]: 1,000 ng/mL
Structure (SMILES): CCCCN1CCCCC1C(=O)Nc1c(C)cccc1C (centres unmarked) [bupivacaine]
